ChEMBL document CHEMBL1151329, “New cyclic peroxides from the Philippine sponge Plakinastrella sp” (J Nat Prod, 1998)
Activity calls are given as the source filed them. No cut-off for these calls is given here.

System: Candida albicans
Assay: Antifungal activity against Candida albicans
Type: functional, organism-based

| Structure (SMILES) | Activity |
| --- | --- |
| CCC(C)CCCCCC/C=C\CC/C=C\CCCC(=O)OC (centres undefined) | inactive |
| C[C@@]1(CCCCCCCCCCc2ccccc2)C[C@]2(C)OC(=O)C[C@@H]2OO1 | inactive |
| CC/C=C\C/C=C/C=C/CCCCCC[C@@]1(C)C[C@](C)(CC(=O)O)OO1 (relative stereo) | inactive |
| CC/C=C\C/C=C/C=C/CCCCCC[C@@]1(C)C[C@](C)(CC(=O)OC)OO1 (relative stereo) | inactive |
